# From patent US20170119034A1, “COMPOSITIONS AND METHODS FOR MODIFYING PERCEPTION OF SWEET TASTE” (University of Florida Research Foundation, Inc., priority 2012, published 2017)
# How the values were obtained:
# [1] = tested on: perceived sweetness of tomato fruit (consumer panel); settings: analysis of a volatile subset (Tieman 2012); cited from earlier work
# [2] = tested on: perceived sweetness of tomato fruit (consumer panel); experiment: Tomato consumer taste panel: perceived sweetness (gLMS) regressed on fruit chemical content; type: in vivo, human; settings: tomato
# Description: (§1) Sensory analysis. Fully ripe fruit were harvested, and used for taste panels. A random subset of fruit was used for biochemical analysis. Three biological replicates, each consisting of 2-20 fruit (depending on fruit size), were assayed for each variety. […] Panelists were between the ages of 18 and 78 with a median age of 22. […] An average of 85 (range of 66-95) of these panelists evaluated between 4-6 varieties in a session. All panelists went through a training session to familiarize them with the scaling and procedures. Tomatoes were sliced into wedges (or in halves for grape/cherry types) and each panelist was given two pieces for evaluation. Panelists took a bite of each sample, chewed and swallowed it, and rated overall liking and liking for texture. They then rated the perceived intensities of sweetness, sourness, saltiness, umami sensation, bitterness and overall tomato flavor. They were free to take as many bites as necessary to complete the assessments. They were instructed to take a bite of an unsalted cracker and a sip of water between samples. Samples were presented to the panelists in a randomized order. Hedonic ratings used the hedonic gLMS. This scale assesses the liking for tomatoes in the context of all pleasure/displeasure experiences: 0=neutral, −100=strongest disliking of any kind experienced, and +100=strongest liking of any kind experienced. Sensory intensity ratings used the gLMS (7, 8, 19).This scale assesses taste and flavor sensations in the context of all sensory experience (7): 0=no sensation, 100=strongest sensation of any kind experienced. Both scales were devised to provide valid comparisons across subjects.
# (§2) Statistical analysis. The 68 chemical compounds measured in this experiment were divided into six groups based upon biochemical properties: sugars, branched chain amino acids, lipids, carotenoids, phenolics, and acids. A small number of compounds for which biosynthetic pathways are not established were assigned to one of the six classes based upon their correlations with other classified compounds. All pairwise correlations among the set of 68 compounds were calculated. Correlation coefficients were sorted using Modulated Modularity Clustering (MMC) (9) as a visual aid for identifying compounds that are closely related in this sample (FIG. 1; Table 4). Biochemical groups were examined for compounds within the group that were highly correlated and compounds that were upstream in the relevant metabolic pathways were preferentially selected.
# (§3) All analyses were performed in SAS v 9.2.
# In conducting the multiple regression analysis on the tomato data set, the independent variables were the sugar content (glucose+fructose), and the flavor (indicated by the retronasal perception of volatiles), while the dependent variable was the perceived sweetness.
# [3] = tested on: tomato flavor intensity (consumer panel); experiment: Tomato consumer taste panel: overall tomato flavor intensity (gLMS) versus fruit chemical content; type: in vivo, human
# Description: as §1, §2, §3
# [4] = tested on: perceived sourness of tomato fruit (consumer panel); experiment: Tomato consumer taste panel: sourness intensity versus fruit chemical content; type: in vivo, human; settings: volatile-induced sourness independent of citric acid
# Description: Sensory analysis. Fully ripe fruit were harvested, and used for taste panels. A random subset of fruit was used for biochemical analysis. Three biological replicates, each consisting of 2-20 fruit (depending on fruit size), were assayed for each variety. A group of 170 tomato consumers (64 male, 106 female) were recruited to evaluate all the varieties. Panelists were between the ages of 18 and 78 with a median age of 22. Panelists self-classified themselves as 101 White/Caucasian, 14 Black/African-American, 32 Asian/Pacific and […]. An average of 85 (range of 66-95) of these panelists evaluated between 4-6 varieties in a session. All panelists went through a training session to familiarize them with the scaling and procedures. Tomatoes were sliced into wedges (or in halves for grape/cherry types) and each panelist was given two pieces for evaluation. Panelists took a bite of each sample, chewed and swallowed it, and rated overall liking and liking for texture. They then rated the perceived intensities of sweetness, sourness, saltiness, umami sensation, bitterness and overall tomato flavor. They were free to take as many bites as necessary to complete the assessments. They were instructed to take a bite of an unsalted cracker and a sip of water between samples. Samples were presented to the panelists in a randomized order. Hedonic ratings used the hedonic gLMS. […]
smiles,measurement,setting,value
CCC(C)C=O (centres unmarked) [2-methylbutanal],enhancing sweetness intensity independent of fructose,[1],enhancing sweetness intensity independent of fructose
same,association with sweetness after accounting for fructose,[2]; after accounting for fructose,independent predictors of sweetness after accounting for fructose
same,correlation with sweetness,[2]; direction of correlation,negatively correlated with sweetness
same,contribution to perceived sweetness,[2]; multiple regression analysis using the volatiles,inhibitory effect
same,association with sweetness,[2]; univariate models,showed evidence for association with sweetness in univariate models
same,association with flavor intensity after accounting for fructose,[3]; after accounting for fructose,independently significant after accounting for fructose
same,association with flavor intensity,[3]; univariate models,associated with flavor intensity in univariate models
same,contribution to sourness,[4],contributed to this sourness
